The record followed here is ChEMBL document CHEMBL1201862, “PubChem BioAssay data set” (2004).

Activity calls are given as the source filed them. A value given as a limit tells only on which side of the number the result lay.

What is called IC50 is the point on the concentration scale where inhibition reaches its midpoint. A word on the AC50: it is the midpoint of the concentration-response curve, whichever way the signal moves. The term EC50 denotes the concentration needed to bring the measured effect to its halfway point. A high value points to weaker potency.

The target in one test is T1, Aminopeptidase N (Plasmodium falciparum FcB1/Columbia, UniProt O96935).
T1 sequence (O96935 whole entry): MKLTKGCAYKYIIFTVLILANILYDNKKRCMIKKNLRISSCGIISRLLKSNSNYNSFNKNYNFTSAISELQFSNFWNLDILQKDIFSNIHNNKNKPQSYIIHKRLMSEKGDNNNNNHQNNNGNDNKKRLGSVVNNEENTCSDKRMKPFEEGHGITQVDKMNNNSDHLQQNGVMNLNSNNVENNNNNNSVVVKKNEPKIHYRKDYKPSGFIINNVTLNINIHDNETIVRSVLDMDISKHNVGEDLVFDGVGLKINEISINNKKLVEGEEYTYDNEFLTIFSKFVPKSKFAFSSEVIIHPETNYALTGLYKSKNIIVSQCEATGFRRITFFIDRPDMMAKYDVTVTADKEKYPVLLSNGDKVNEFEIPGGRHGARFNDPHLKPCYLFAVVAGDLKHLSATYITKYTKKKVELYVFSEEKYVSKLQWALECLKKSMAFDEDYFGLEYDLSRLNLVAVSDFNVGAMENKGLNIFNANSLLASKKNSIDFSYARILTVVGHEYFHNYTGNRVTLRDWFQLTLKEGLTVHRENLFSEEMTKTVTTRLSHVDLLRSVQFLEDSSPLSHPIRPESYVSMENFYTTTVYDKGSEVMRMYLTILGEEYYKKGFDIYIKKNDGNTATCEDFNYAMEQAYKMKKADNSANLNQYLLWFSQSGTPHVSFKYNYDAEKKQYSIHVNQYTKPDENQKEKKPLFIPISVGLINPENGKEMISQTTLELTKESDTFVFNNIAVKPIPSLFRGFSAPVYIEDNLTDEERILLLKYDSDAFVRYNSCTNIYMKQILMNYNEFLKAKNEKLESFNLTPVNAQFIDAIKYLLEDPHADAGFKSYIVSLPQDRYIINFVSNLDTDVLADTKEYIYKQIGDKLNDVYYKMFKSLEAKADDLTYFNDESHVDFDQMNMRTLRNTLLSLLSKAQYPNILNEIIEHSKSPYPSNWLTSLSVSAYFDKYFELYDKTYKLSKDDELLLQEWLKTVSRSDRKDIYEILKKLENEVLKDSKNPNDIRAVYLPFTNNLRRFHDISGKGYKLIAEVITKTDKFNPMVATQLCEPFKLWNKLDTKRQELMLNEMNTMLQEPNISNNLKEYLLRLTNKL
The experiment in a line: malaria alanyl aminopeptidase activity blockers – biochemical, fluorogenic H-Leu-NHMec substrate, 1536-well (AID 1445). More on the design: species or system Plasmodium falciparum 3D7, 3D7.

For test [1], the target named is Glucose-6-phosphate 1-dehydrogenase (Homo sapiens, UniProt P11413). The experiment in a line: inhibition of Homo sapiens G6PD, dose series – biochemical, fluorescence, selectivity assay for P. falciparum G6PD inhibitor project, dose response (AID 504792). In kind it is functional.
Chain of Glucose-6-phosphate 1-dehydrogenase (P11413 whole entry): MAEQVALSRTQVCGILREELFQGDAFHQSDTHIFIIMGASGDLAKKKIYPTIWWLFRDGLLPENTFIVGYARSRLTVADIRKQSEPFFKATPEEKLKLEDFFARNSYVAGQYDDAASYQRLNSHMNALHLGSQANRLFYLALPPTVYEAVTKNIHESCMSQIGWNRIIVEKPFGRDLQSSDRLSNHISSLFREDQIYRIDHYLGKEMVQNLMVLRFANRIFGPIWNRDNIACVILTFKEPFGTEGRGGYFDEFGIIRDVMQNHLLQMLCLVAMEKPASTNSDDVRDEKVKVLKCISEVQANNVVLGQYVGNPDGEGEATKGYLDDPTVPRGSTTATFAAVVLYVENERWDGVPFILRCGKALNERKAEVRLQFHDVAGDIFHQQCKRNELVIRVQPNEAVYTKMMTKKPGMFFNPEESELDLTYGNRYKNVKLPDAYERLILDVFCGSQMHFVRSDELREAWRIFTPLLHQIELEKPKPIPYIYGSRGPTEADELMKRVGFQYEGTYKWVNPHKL
The next test concerns HeLa. In words: viability loss in HeLa cells – cell-based, 24 h, cherry-picked samples, cytotoxicity control, dose response (AID 504726).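 Note: potency for cytotoxicity as loss of luminescence signal.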 In kind it is functional. The conditions noted are these: Homo sapiens.
In test [2] the target is T2, Rac GTPase-activating protein 1 (Homo sapiens, UniProt Q9H0H5).
T2 sequence (Q9H0H5 whole entry): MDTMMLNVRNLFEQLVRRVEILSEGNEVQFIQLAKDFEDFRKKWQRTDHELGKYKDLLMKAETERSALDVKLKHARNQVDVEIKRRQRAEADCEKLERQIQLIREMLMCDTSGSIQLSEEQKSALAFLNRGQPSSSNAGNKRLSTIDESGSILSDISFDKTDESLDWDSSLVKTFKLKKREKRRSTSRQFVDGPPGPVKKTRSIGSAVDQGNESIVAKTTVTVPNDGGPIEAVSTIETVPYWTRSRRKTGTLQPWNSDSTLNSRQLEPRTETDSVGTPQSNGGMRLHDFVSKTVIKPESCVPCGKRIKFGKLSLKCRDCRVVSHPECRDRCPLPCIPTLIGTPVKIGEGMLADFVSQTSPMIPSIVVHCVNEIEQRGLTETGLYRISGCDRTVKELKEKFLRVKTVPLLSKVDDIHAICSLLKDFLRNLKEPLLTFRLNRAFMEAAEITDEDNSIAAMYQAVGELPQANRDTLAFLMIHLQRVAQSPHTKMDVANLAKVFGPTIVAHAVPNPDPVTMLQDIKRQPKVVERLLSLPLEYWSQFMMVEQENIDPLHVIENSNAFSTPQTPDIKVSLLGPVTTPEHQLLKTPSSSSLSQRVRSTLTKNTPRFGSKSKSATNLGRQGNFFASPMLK
The experiment in a line: blockers of MgcRacGAP-driven Rac1 GTP hydrolysis – biochemical, ADP Hunter fluorescence, primary and confirmatory, confirmation (AID 624330). It counts as functional.

The target in test [3] is Intestinal-type alkaline phosphatase (Mus musculus, UniProt P24822). The experiment in a line: PubChem AID 488785. In kind it is functional.
Chain of Intestinal-type alkaline phosphatase (P24822 whole entry): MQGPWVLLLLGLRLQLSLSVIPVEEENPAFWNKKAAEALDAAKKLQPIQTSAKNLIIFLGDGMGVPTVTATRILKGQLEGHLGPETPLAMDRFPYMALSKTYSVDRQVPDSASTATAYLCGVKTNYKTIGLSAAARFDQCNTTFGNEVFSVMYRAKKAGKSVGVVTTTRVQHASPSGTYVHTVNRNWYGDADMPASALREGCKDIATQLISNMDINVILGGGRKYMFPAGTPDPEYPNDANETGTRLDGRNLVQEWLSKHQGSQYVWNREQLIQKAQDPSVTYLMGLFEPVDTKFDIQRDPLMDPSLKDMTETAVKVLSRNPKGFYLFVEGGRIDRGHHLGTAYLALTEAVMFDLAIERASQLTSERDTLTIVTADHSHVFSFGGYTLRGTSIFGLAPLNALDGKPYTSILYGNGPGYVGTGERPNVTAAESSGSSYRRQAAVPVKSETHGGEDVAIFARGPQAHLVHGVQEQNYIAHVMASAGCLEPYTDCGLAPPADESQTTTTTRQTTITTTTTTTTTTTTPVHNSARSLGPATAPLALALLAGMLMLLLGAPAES
Test [4] in a line: fluconazole-exposed Candida albicans growth modulators – fluorescence, retest, confirmation (AID 2467). In kind it is functional, cell-based.

Regarding `Cc1cc(C)c(S(=O)(=O)Nc2cc(SCC(=O)O)c(O)c3ccccc23)cc1C`, the IC50 at Aminopeptidase N was 48.5 µM (active); in test [1], 8.73 µM (active).
In the case of `O=C(O)c1cc(N2N=C(C(F)(F)F)/C(=C/C=C/c3ccco3)C2=O)ccc1Cl`, the concentration at half-maximal activity (AC50) with HeLa was 24.9 µM (active). The concentration for half-maximal inhibition (IC50) in test [2] is 10.6 µM (active).
Regarding `O=C(/C=C/c1ccco1)NC(=S)Nc1cccc(C(=O)O)c1`, the IC50 in test [3] is 9.52 µM (active).
For `CNCc1ccccc1Sc1ccc(O)c(O)c1`, the EC50 in test [4] is > 38 µM (not active).
